Assay results as given in paper PMC4161160 (Journal of Medicinal Chemistry, 2014).
Values joined by “and” are separate entries in the source; they are usually repeats but may differ in a detail not shown here. Equal entries are not always repeated. Where two headings read alike, the source gives them in different places. Blank lines part the entries; values can stand above or below the compound they belong to.

Legend:
[1] = Microsomal stability assay, human liver microsomes; assay type: in vitro ADME; settings: for T1/2 in human liver microsomes: 0.5 μM compound, 1 mg/mL microsomal protein; for Fold improvement of metabolic stability in human microsomes: compared to parent SMART compound
[2] = Microsomal stability assay, mouse liver microsomes; assay type: in vitro ADME; settings: 0.5 μM compound, 1 mg/mL microsomal protein
[3] = Microsomal stability assay, rat liver microsomes; assay type: in vitro ADME; settings: 0.5 μM compound, 1 mg/mL microsomal protein
Bovine brain tubulin = Bovine brain tubulin (Bos taurus, UniProt P81947+Q6B856); assay: In vitro tubulin polymerization assay; assay type: biochemical; settings: for Inhibition of tubulin polymerization: 20 min incubation, compared to vehicle
[4] = Metabolite identification in human liver microsomes; assay type: in vitro ADME; settings: 50 μM compound, 1 mg/mL microsomal protein, high resolution MS
[5] = cited from earlier work
[6] = cited from earlier work; remark: listed apart in the source
A375 = assay: Antiproliferative SRB assay, A375 melanoma cells; assay type: cell-based; settings: compared to SMART compound 10 and 4
LNCaP = assay: Antiproliferative SRB assay, LNCaP prostate cancer cells; assay type: cell-based, human; settings: compared to SMART compound 10 and 4
[7] = Microsomal stability, over the tested liver microsome species; assay type: in vitro ADME; settings: mouse, rat
prostate cancer cells = assay: Antiproliferative activity, prostate cancer cells overall; assay type: cell-based, human; settings: compared to parent PAT compound

Bovine brain tubulin, sequence (Q6B856 whole entry): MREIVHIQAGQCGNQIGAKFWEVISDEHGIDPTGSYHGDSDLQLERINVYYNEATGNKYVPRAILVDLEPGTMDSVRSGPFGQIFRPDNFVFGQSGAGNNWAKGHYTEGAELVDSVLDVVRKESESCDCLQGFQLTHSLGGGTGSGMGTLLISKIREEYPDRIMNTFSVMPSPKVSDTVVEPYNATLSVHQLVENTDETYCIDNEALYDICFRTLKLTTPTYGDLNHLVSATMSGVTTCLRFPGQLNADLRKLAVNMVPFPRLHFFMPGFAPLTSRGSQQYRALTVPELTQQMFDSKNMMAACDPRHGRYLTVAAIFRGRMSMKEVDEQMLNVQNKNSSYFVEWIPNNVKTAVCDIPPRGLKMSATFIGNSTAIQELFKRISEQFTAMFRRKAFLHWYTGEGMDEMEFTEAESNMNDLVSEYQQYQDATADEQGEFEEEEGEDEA
Bovine brain tubulin, sequence (P81947 whole entry): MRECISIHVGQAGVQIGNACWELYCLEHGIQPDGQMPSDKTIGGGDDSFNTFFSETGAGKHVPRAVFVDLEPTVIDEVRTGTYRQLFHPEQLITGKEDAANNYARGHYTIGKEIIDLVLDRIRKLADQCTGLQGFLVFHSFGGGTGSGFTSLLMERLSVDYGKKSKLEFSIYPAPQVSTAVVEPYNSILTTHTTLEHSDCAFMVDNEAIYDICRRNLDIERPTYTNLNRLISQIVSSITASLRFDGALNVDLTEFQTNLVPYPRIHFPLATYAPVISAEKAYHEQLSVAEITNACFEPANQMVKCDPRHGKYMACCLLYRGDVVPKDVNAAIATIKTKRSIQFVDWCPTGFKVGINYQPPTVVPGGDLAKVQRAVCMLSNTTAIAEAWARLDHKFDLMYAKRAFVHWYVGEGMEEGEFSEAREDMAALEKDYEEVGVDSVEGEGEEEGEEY

Compound: COc1cc(C(=O)c2csc(Nc3ccccc3)n2)cc(OC)c1OC [PAT]
- Oral bioavailability [5]: 21%
- Oral bioavailability (F) ([5]; reference not given): > 30%

Compound: COc1cc(C(=O)c2csc(-c3ccccc3)n2)cc(OC)c1OC [SMART 10]
- T1/2 in mouse liver microsomes [6]: ≪5 min

Compound: COc1cc(-c2nccc3[nH]c(-c4ccc5[nH]ccc5c4)nc23)cc(OC)c1OC [compound 7, 2-(1H-Indol-5-yl)-4-(3,4,5-trimethoxyphenyl)-1H-imidazo[4,5-c]pyridine]
- Fold improvement of IC50 against A375 (A375): at least 5 fold
- Fold improvement of IC50 against LNCaP (LNCaP): at least 5 fold
- Fold improvement of metabolic stability in human microsomes [1]: 2–3 fold
- inhibition at 5 µM (Bovine brain tubulin; read-out: Inhibition of tubulin polymerization): ~33%
- Major metabolites / metabolic pathway [4]: M14 is the major metabolite

Second part, led by results:

- T1/2 in human liver microsomes [1]: 0.85 h and 0.845 ± 0.02 h
- Fold improvement of metabolic stability in human microsomes [1]: 2–3 fold
- T1/2 in mouse liver microsomes [2]: 0.892 ± 0.04 h
- T1/2 in rat liver microsomes [3]: 1.2 ± 0.0767 h
- Inhibition of tubulin polymerization (Bovine brain tubulin; 5 μM): 30%
- Inhibition of tubulin polymerization (Bovine brain tubulin; 10 μM): 60%
Compound: 2-(1H-Indol-3-yl)-4-(3,4,5-trimethoxyphenyl)-1H-benzo[d]imidazole [compound 4]
- Major metabolites / metabolic pathway [4]: o-demethylation (M9) and monohydroxylation (M10) are the major products

- half-life at 0.5 μM ([7]; human, liver microsomes, pH 7.4): < 0.167 h
Compound: COCOc1c(OC)cc(C(=O)c2csc(-c3ccccc3)n2)cc1OC [compound 15, (3,5-Dimethoxy-4-(methoxymethoxy)phenyl)(2-phenylthiazol-4-yl)methanone]
- Major metabolites / metabolic pathway [4]: removal of the MOM group to form M1 is the major metabolic pathway

- Fold change of IC50 on prostate cancer cells (prostate cancer cells): 2–3 fold
Compound: COc1cc(C(=O)c2csc(Nc3ccc4[nH]ccc4c3)n2)cc(OC)c1OC [compound 33, (2-((1H-Indol-5-yl)amino)thiazol-4-yl)(3,4,5-trimethoxyphenyl)methanone]

- T1/2 in human liver microsomes [1]: 1.833 ± 0.0917 h
- T1/2 in mouse liver microsomes [2]: 2.05 ± 0.128 h
- T1/2 in rat liver microsomes [3]: 3.75 ± 0.21 h
- T1/2 in the tested liver microsomes species ([7]; summary over human): 1.83 to 3.75 h
Compound: (4-(2-Aminoethyl)-3,5-dimethoxyphenyl)(2-phenylthiazol-4-yl)methanone [compound 18]
- Major metabolites / metabolic pathway [4]: M6 (dealkylation) and M8 (ketone reduction) are the major metabolites
